Where a name gives a salt, the structure may show the parent alone. Read-outs that look alike come from different tables or passages of the source.
What was measured:
[1] = tested on: cholesterol biosynthesis in HepG2 cells; test: Metabolic labeling of HepG2 cells with [3H]acetate; radio-HPLC sterol profile (inhibition of cholesterol biosynthesis); assay type: cell-based, human; settings: HepG2; for activity at 10 µM: Homo sapiens, 24 h, Table I, sterol level normalized to normal medium (1.00), mean of 4 experiments
Method: In accordance with the aims of the invention, the effect of the novel compounds on inhibition of cholesterol biosynthesis is assessed. An ex vivo method of metabolic labeling of immortal human hepatocytes is employed. The radioactively labeled early precursor of cholesterol [3H]acetate is added to cells with or without addition of an active new compound.
An ex vivo method of metabolic labeling of immortal human hepatocytes is employed. The radioactively labeled early precursor of cholesterol [3H]acetate is added to cells with or without addition of an active compound.
Cell culture incubation with potential inhibitors of cholesterol biosynthesis and statins Human hepatoma cell line (HepG2-ATCC No. HB-8065) is split in the recommended ratio (1:2-3) into 75 cm^2 cell flasks using two flasks per experimental condition. Cells are incubated at 37° C. with 5% CO2 in Dulbeco's modified Eagle medium (DMEM high (Sigma)) containing 5% calf serum (Sigma) and 1% L-glutamine (Sigma). After 24-hours-culturing in the growth medium, the medium is replaced with the one supplemented with 10 μM concentration of a LK compound, potential inhibitor of cholesterol biosynthesis. 10 μM solution of atorvastatin, inhibitor of HMG-CoA reductase, serves as a positive control.
After 24 hours the growth medium is changed and [^3H]acetate (NEN™ Life Science Products) added in a concentration of 40 μCi per ml of the medium (400 μCi per flask). After 4 hours cells are harvested using 2 ml of trypsin (Sigma) and the cell pellet is resuspended in 1 ml of distilled water. Cells are homogenized using the freeze and thaw method. From cell homogenate sterols are extracted and protein concentration determined using the Bio-Rad reagent.
Homogenates are transferred into 4 ml glass vial and sterols are extracted in 3 ml of extraction solution (75% n-heptane: 25% isopropanol (vol./vol.)) with ergosterol as an internal standard. For better extraction 100 μl of 0.3M NaH2PO4 (pH=1.0) is added. Closed vials are vigorously shaken (1800 rpm) for 2 hours. After extraction procedure vials are centrifuged (2000 g, 10 min) and the organic phase is transferred to fresh conical glass tubes. Extraction procedure is repeated using 1 ml of extraction solution for 15 min. Organic phases are pooled. Primary extracts are dried in vacuum centrifuge, redissolved in 3 ml of n-heptane, and incubated for 10 min at room temperature with mild shaking. After centrifugation (10 min, 2000 g) extracts are transferred into fresh glass tubes and stored in dark and cold.
The organic phase is dried, reconstituted in mobile phase for reversed phase HPLC separation and loaded onto a-HPLC column, Prism-RPN, 5 μm, 250×4,6 mm running in 100% acetonitrile at 1.00 ml/min at 40° C. temperature. Scintillation liquid is added after UV detection at 30 ml/h, at room temperature, to evaluate tritium labeled sterols on a radio detector.
Sterols are determined by comparing the eluted peaks with runs of commercial standards of lanosterol, ergosterol, desmosterol, zymosterol, 7-dehydrocholesterol, lathosterol and cholesterol or laboratory standards (FF-MAS-4,4-Dimethylcholesta-8(9),14,24-triene-3β-ol- and T-MAS-4,4-Dimethylcholesta8(9),24,diene-3,6-ol, Laboratory of Reproductive Biology, The Juliane Marie Center for Children, Women and Reproduction, University Hospital of Copenhagen, DK-2100 Copenhagen, Denmark). Results were normalized on ergosterol quantity and protein concentration. Results are presented as a mean from 4 separated experiments.
The influence of a 10 μM solution of novel LK-substances on cholesterol biosynthesis in the assay on HepG2 cells is presented in Table I. Compounds are arranged according to the building blocks, three of them are 2-pyridineethanols, 2-pyridineethylpiperazines and pyridinemethylpiperazines.
Normal medium pertains to cell cultures without a compound of the invention. Its sterol levels were used for normalization. 10 μM solution of atorvastatin serves as a positive control.

[2] = Table II (arranged by sterol profile), 10 μM compound, normalized to normal medium (1.00)

melting point | Structure (SMILES) | FF-MAS accumulation (in words) ([1]; 10 μM) | lanosterol level (in words) ([1]; 10 μM, relative to normal medium) | activity at 10 µM ([1]; 10 μM compound, read-out: FF-MAS) | activity at 10 µM ([1]; 10 μM compound, read-out: cholesterol) | activity at 10 µM ([1]; 10 μM compound, read-out: desmosterol) | activity at 10 µM ([1]; 10 μM compound, read-out: lanosterol) | activity at 10 µM ([1]; 10 μM compound, read-out: lathosterol) | activity at 10 µM ([1]; 10 μM compound, read-out: zymosterol+7-dehydrocholesterol) | FF-MAS [1, 2] | cholesterol [1, 2] | desmosterol [1, 2] | lanosterol [1, 2] | lathosterol [1, 2] | zymosterol+7-dehydrocholesterol [1, 2]
126 to 129 °C | OC(CN1CCN(CCc2ccccc2)CC1)c1ccc2ccccc2c1 (centres unmarked) [LK-9111B, 1-(Naphthalen-2-yl)-2-(4-phenethylpiperazin-1-yl)ethanol] | notably accumulate FF-MAS | indicates lanosterol accumulation | 901% | 0% | 0% | 197% | 46% | 171% | 9.01 | 0.00 | 0.00 | 1.97 | 0.46 | 1.71
178 to 181 °C | OC(CN1CCN(CCc2ccccc2)CC1)c1cccnc1 (centres unmarked) (as salt: hydrobromid) [LK-980, 2-(4-Phenethylpiperazine-1-yl)-1-(pyridine3-yl)-1-ethanol trihydrobromide] | – | – | – | – | – | – | – | – | – | – | – | – | – | –
207 to 209 °C | Clc1ccc(CCN2CCN(CCc3ccccn3)CC2)cc1Cl (as salt: hydrobromid) [LK-9137, 1-(3,4-Dichlorophenethyl)-4-(2-(pyridin-2-yl)ethyl)piperazine trihydrobromide] | – | – | – | – | – | – | – | – | – | – | – | – | – | –

Source: patent US20090018118A1, “HETEROCYCLIC COMPOUNDS” (priority 2005, published 2009)
